The values below come from patent publication US9353150B2, “Substituted pyrazino[1′,2′:1 ,5]pyrrolo[2,3-b]-indole-1,4-diones for cancer treatment” (Massachusetts Institute of Technology, priority 2012, dated 2016).

Molecules are shown by their SMILES. “Also recorded” adds a separate entry of the source. Like-named read-outs stand apart in the source and are kept apart here.

For data set [1], the system named is U-937 (hystiocytic lymphoma). In words: 72-hour IC50 determination for non-adherent cells using MTS. The class given is cell-based, human. Conditions: 72-hour exposure. Summed up: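 U-937 cells (5,000/well) in RPMI-1640 + 10% FBS were exposed to compounds in triplicate (1% DMSO final) for 72 h at 37 °C. Viability was read by PMS/MTS absorbance at 490 nm, with DMSO wells as live and cell-free wells as dead controls. IC50 came from three or more independent experiments.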

The test system of a further data set is human cancer cell lines. In words: Anticancer activity in human cancer cell lines, not tied to one cell line. The class given is cell-based. The note with it: for anticancer activity, in words: human cancer cell lines, 72-hour exposure. Summed up: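 Cells exposed 72 h to compound on a half-log scale (1% DMSO final); adherent lines (HeLa, H460, 786-O, MCF7) read by SRB staining at 510 nm, U-937 by MTS/PMS absorbance at 490 nm. IC50 from three or more independent experiments.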

Data set [2] deals with HeLa (cervical carcinoma). Briefly: 72-hour IC50 determination for adherent cells using sulforhodamine B (SRB). The note with it: 72-hour exposure. In kind it is cell-based, human. The procedure, abridged:
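HeLa cells were seeded at 5,000 cells/well in RPMI-1640 with 10% FBS and exposed continuously for 72 hours to compounds on a half-log scale (1% DMSO final, triplicate). Cells were then TCA-fixed, stained with sulforhodamine B and read at 510 nm. IC50 values came from three or more independent experiments.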

A further data set relates to H460 (lung carcinoma). Described as above. The note with it: error is standard deviation of the mean, n ≧ 3, read-out: H460, 72-hour IC50 (Table E1-2). The class given is cell-based, human. As to the method: (§1) Certain provided compounds were tested in culture against a panel of three supplementary human cancer cell lines representing three additional tumor histologies (H460, lung carcinoma; 786-O, renal carcinoma; MCF-7, breast carcinoma). As shown in Table E1-2, the ETPs retain their potency across the cell lines. In some embodiments, a provided compound is active in all cell lines. In some embodiments, a provide compound can be used to selectively target certain cells and/or cancers. […] Without the intention to be limited, Applicant notes that certain cell lines could be more sensitive to provided compounds; for example, U-937 and HeLa are slightly more sensitive to the ETPs than the other three cell lines.
(§2) Cells were grown in media supplemented with fetal bovine serum (FBS) and antibiotics ([…]). Specifically, experiments were performed using the following cell lines and media compositions: U-937, HeLa, H460, and 786-O (RPMI-1640+10% FBS), and MCF7 (EMEM+10% FBS). Cells were incubated at 37° C. in a 5% CO2, 95% humidity atmosphere.
(§3) Adherent cells (HeLa, H460, 786-O, and MCF7) were added into 96-well plates (5,000 cells/well for HeLa cell line; 2,000 cells/well for H460, 786-O, and MCF7 cell lines) in 100 μL media and were allowed to adhere for 2-3 hours. Compounds were solubilized in DMSO as 100× stocks, added directly to the cells (100 μL final volume), and tested over a range of concentrations in triplicate (1% DMSO final) on a half-log scale. Concentrations tested ranged from […] to 10 μM, depending on the potency of the compound. DMSO and cell-free wells served as the live and dead control, respectively. After 72 hours of continuous exposure, the plates were evaluated using the SRB colorimetric assay as described previously (Vichai, V.; Kirtikara, K. Nature Prot. 2006, 1, 1112). Briefly, media was removed from the plate, and cells were fixed by the addition of 100 μL cold 10% trichloroacetic acid in water. After incubating at 4° C. for an hour, the plates were washed in water and allowed to dry. Sulforhodamine B was added as a 0.057% solution in 1% acetic acid (100 μL), and the plates were incubated at room temperature for 30 minutes, washed in 1% acetic acid, and allowed to dry. The dye was solubilized by adding 10 mM Tris base solution (pH 10.5, 200 μL) and incubating at room temperature for 30 minutes. Plates were read at λ=510 nm. IC50 values were determined from three or more independent experiments using TableCurve (San Jose, Calif.).

The subject of the next data set is 786-O (renal carcinoma). The data set is described as above. The class given is cell-based, human. The note with it: error is standard deviation of the mean, n ≧ 3, read-out: 786-O, 72-hour IC50 (Table E1-2). Here is the method:
as §1, §2, §3

Another data set deals with MCF-7 (breast carcinoma). The data set is described as above. The class given is cell-based, human. The note with it: error is standard deviation of the mean, n ≧ 3, read-out: MCF-7, 72-hour IC50 (Table E1-2). As to the method: as §1, §2, §3
The subject of a further data set is U-937 cells. In words: Apoptosis in U-937 cells with Annexin V-FITC and propidium iodide (AnnV/PI), flow cytometry. The class given is cell-based, human. The note with it: 24 hours, compounds at 100-times their 72-hour IC50. As to the method:
DMSO stocks of compounds were added to a 24-well plate in singlicate (0.2% DMSO final). After compound addition, 0.5 mL of a U-937 cell suspension (250,000 cells/mL) was added and allowed to incubate for 24 hours. Following treatment, the cell suspensions were transferred to flow cytometry tubes and pelleted (500 g, 3 min). The media was removed by aspiration, and cells were re-suspended in 200 μL AnnV binding buffer (10 mM HEPES, pH 7.4, 140 mM NaCl, 2.5 mM CaCl2) with 5 μg/mL PI and 1:90 dilution of AnnV. Samples were analyzed using flow cytometry.
In general terms: A flow cytometer gives signals particle by particle.

Data set [3] can be described thus: Solubility observed on isolation. Conditions: in CH2Cl2, CHCl3, EtOAc, MeOH, DMSO.
A short description of data set [4]: Stability observed on isolation (concentration / solution). Conditions: observed during isolation and characterization.
Setting [5] is: MTS, error is standard deviation of the mean, n ≧ 3, read-out: U-937, 72-hour IC50 (Table E1-1).
Where [6] appears, read: MTS, error is standard deviation of the mean, n ≧ 3, read-out: U-937, 72-hour IC50 (Table E1-2).
Where [7] appears, read: SRB, error is standard deviation of the mean, n ≧ 3, read-out: HeLa, 72-hour IC50 (Table E1-1).
The mark [8] stands for this setting: SRB, error is standard deviation of the mean, n ≧ 3, read-out: HeLa, 72-hour IC50 (Table E1-2).
Setting [9] is: Homo sapiens, U-937, MTS, error is standard deviation of the mean, n ≧ 3, read-out: U-937, 72-hour IC50 (Table E1-1).
The mark [10] stands for this setting: Homo sapiens, HeLa, SRB, error is standard deviation of the mean, n ≧ 3, read-out: HeLa, 72-hour IC50 (Table E1-1).
Where [11] appears, read: Homo sapiens, U-937, MTS, error is standard deviation of the mean, n ≧ 3, read-out: U-937, 72-hour IC50 (Table E1-2).
Setting [12] is: Homo sapiens, HeLa, SRB, error is standard deviation of the mean, n ≧ 3, read-out: HeLa, 72-hour IC50 (Table E1-2).
The mark [13] stands for this setting: Homo sapiens, NCI-H460, 72-hour exposure.
[14] abbreviates: Homo sapiens, 786-0, 72-hour exposure.
[15] abbreviates: Homo sapiens, MCF7, 72-hour exposure.

The term IC50 denotes the point on the concentration scale where inhibition reaches its midpoint. Consider `CN1C(=O)[C@@]23C[C@]4([C@]56C[C@@]78SS[C@@](C)(C(=O)N7[C@H]5N(S(=O)(=O)c5ccccc5)c5ccccc56)N(C)C8=O)c5ccccc5N(S(=O)(=O)c5ccccc5)[C@@H]4N2C(=O)[C@]1(C)SS3` [Compound 14, Dimeric epidithiodiketopiperazine], for which the IC50 came out at 0.18 ± 0.06 nM in [1] (setting [5]); 0.18 ± 0.06 nM in data set [1] (setting [6]); 0.18 nM in data set [1] (read-out: IC50 (U-937)); 0.09 ± 0.06 nM in [2] (setting [7]); 0.09 ± 0.06 nM in data set [2] (setting [8]); 0.09 nM in data set [2] (read-out: IC50 (HeLa)). The IC50 was found to be 1.53 ± 0.85 nM in the data set with H460 (lung carcinoma) (72-hour exposure), 1.55 ± 0.77 nM in the data set with 786-O (renal carcinoma) (72-hour exposure) and 1.65 ± 0.51 nM in the data set on MCF-7 (breast carcinoma) (72-hour exposure). Also, the “anticancer activity, in words” value with human cancer cell lines is “active across the board”. The “potency relative to (+)-12,12′-dideoxyverticillin A (3)” value with human cancer cell lines (more potent than the corresponding secondary aniline 3) is listed as 2 orders of magnitude. Moreover, in the data set on U-937 cells, the “induction of apoptosis (phosphatidylserine exposure / propidium iodide inclusion)” value is listed as “induce caspase-dependent apoptotic cell death; also recorded: induce apoptosis”.
Consider `CN1C(=O)[C@@]23C[C@]4(c5c[nH]c6ccccc56)c5ccccc5N(S(=O)(=O)c5ccccc5)[C@@H]4N2C(=O)[C@@H]1S3` [Compound 25, C3-(Indol-3′-yl)epimonothiodiketopiperazine], for which the values for the IC50 in data set [1] (setting [9]) and in data set [2] (setting [10]) were 710 ± 134 nM and 1480 ± 182 nM, respectively. Moreover, the solubility entry in data set [3] is given as “Limited solubility”.
On to `CN1C(=O)C23CC4(c5c[nH]c6ccccc56)c5ccccc5N(S(=O)(=O)c5ccccc5)[C@@H]4N2C(=O)[C@H]1SC(=S)S3` (stereo partly shown) [Compound 36, C3-(Indol-3′-yl)dithiepanethione], for which the half-inhibitory concentration (IC50) in [1] (setting [9]) stood at 3.8 ± 0.9 nM; in data set [1] (setting [11]), 3.8 ± 0.9 nM; in data set [2] (setting [10]), 33 ± 13 nM; in [2] (setting [12]) it was 33 ± 13 nM; with H460 (lung carcinoma) (setting [13]), 190 ± 61 nM; in the data set with 786-O (renal carcinoma) (setting [14]), 133 ± 10 nM. Moreover, the half-inhibitory concentration (IC50) with MCF-7 (breast carcinoma) (setting [15]) is 163 ± 7 nM. Besides, the “anticancer activity, in words” value in the data set with human cancer cell lines is listed as “competent anticancer agents”. Further, in data set [4], the “stability upon concentration or in solution” value is on record as “tends to degrade”.
On to `CN1C(=O)C23CC4(c5c[nH]c6ccccc56)c5ccccc5N(S(=O)(=O)c5ccccc5)C4N2C(=O)C1SS3` (stereo not shown) [Compound 26, C3-(Indol-3′-yl) epidithiodiketopiperazine], for which the half-inhibitory concentration (IC50) in data set [1] (setting [5]) was 2.8 ± 0.3 nM; in data set [1] (setting [6]) it was 2.8 ± 0.3 nM; in data set [2] (setting [7]) it was 41.7 ± 5.7 nM; in data set [2] (setting [8]), 41.7 ± 5.7 nM; in the data set with H460 (lung carcinoma) (72-hour exposure) it was 66 ± 19 nM; with 786-O (renal carcinoma) (72-hour exposure), 62.7 ± 7.6 nM. In the data set with MCF-7 (breast carcinoma) (72-hour exposure), the half-maximal inhibitory concentration (IC50) is 67 ± 19 nM. Moreover, the “induction of apoptosis (phosphatidylserine exposure / propidium iodide inclusion)” value in the data set with U-937 cells is on record as “induce caspase-dependent apoptotic cell death; also recorded: induce apoptosis”.
For `CN1C(=O)[C@@]23C[C@]4([C@]56C[C@@]78SSS[C@@](CO)(C(=O)N7[C@H]5Nc5ccccc56)N(C)C8=O)c5ccccc5N[C@@H]4N2C(=O)[C@]1(CO)SSS3` [Compound 5, (+)-chaetocin C], the IC50 in data set [1] (setting [5]) stood at 0.75 ± 0.13 nM; in data set [1] (setting [6]), 0.75 ± 0.13 nM; in [2] (setting [7]), 6.3 ± 0.6 nM; in data set [2] (setting [8]), 6.3 ± 0.6 nM; in the data set with H460 (lung carcinoma) (72-hour exposure) it was 26 ± 9.3 nM; in the data set on 786-O (renal carcinoma) (72-hour exposure), 14.6 ± 0.8 nM. The IC50 with MCF-7 (breast carcinoma) (72-hour exposure) was 27 ± 11 nM. Further, the “anticancer activity, in words” value with human cancer cell lines is on record as “active across the board”. The “induction of apoptosis (phosphatidylserine exposure / propidium iodide inclusion)” value with U-937 cells is “induce caspase-dependent apoptotic cell death; also recorded: induce apoptosis”.
Regarding `CN1C(=O)[C@@]23C[C@]4(c5c[nH]c6ccccc56)c5ccccc5N(S(=O)(=O)c5ccccc5)[C@@H]4N2C(=O)[C@@H]1SSSS3` [Compound 28, C3-(Indol-3′-yl) epitetrathiodiketopiperazine], the IC50 in data set [1] (setting [9]) came to 8.3 ± 3.3 nM; in [1] (setting [11]) it was 8.3 ± 3.3 nM; in data set [2] (setting [10]) it was 137 ± 86 nM; in [2] (setting [12]), 137 ± 86 nM; in the data set with H460 (lung carcinoma) (setting [13]), 277 ± 43 nM; in the data set with 786-O (renal carcinoma) (setting [14]), 344 ± 20 nM. In addition, the IC50 with MCF-7 (breast carcinoma) (setting [15]) is 309 ± 31 nM. In addition, the “stability upon concentration or in solution” value in [4] is on record as “instability in solution”.
